BindingDB's records for patent US20250145589 (Sichuan Huiyu Pharmaceutical, 2025)

Experiments:
[1] = target: Phosphatidylinositol 4,5-bisphosphate 3-kinase catalytic subunit alpha isoform (Homo sapiens, UniProt P42336); assay: Inhibition of PI3Kalpha Efficacy assay
Protocol: (§1) The ADP-Glo™ kinase assay was used to assess the inhibition of PI3Kα with our compounds. The utilized proteins and assay reagents were obtained from the ADP-Glo™ Kinase Assay Kit (Promega). Initially, a 2 mM stock solution of the test compound (dissolved in DMSO) was serially diluted in five-fold concentrations using DMSO to obtain eight working solutions 1 (200′). Subsequently, each of the eight working solutions 1 was further diluted in a 20-fold gradient by adding 5 μL into 95 μL of ddH2O, resulting in eight working solutions 2 (10×). In a 384-well white flat-bottom plate, 2 μL of 2.5×PI3Kα kinase solution and 1 μL of working solution 2 (10×) were added to each well and mixed, followed by a 15-minute incubation at room temperature (RT). Subsequently, 2 μL of 2.5×PI and ATP solution mixture were added to each well, mixed, and incubated at RT for 60 minutes. Then, 5 μL of ADP-Glo (containing 10 mM MgCl2) reagent was added to each well, mixed, and incubated at RT for 40 minutes.Finally, 10 μL of the Kinase Detection Reagent was added to each well, mixed, and incubated at RT for 40 minutes. Luminescence values were recorded using a multi-mode microplate reader with luminescence channel settings, and the inhibitory rate was calculated using the following formula:%Inhibitionrate=[(Negative-testcompound)/(Negative-Blank)]*100Data were analyzed using GraphPad Prism with log(inhibitor) vs. response—Variable Slope(four parameters) fitting calculations for IC5 values.

[2] = target: T1, Phosphatidylinositol 4,5-bisphosphate 3-kinase catalytic subunit delta isoform (Homo sapiens, UniProt O00329); assay: Inhibition of PI3Kdelta Efficacy Assay
T1 sequence (O00329 whole entry): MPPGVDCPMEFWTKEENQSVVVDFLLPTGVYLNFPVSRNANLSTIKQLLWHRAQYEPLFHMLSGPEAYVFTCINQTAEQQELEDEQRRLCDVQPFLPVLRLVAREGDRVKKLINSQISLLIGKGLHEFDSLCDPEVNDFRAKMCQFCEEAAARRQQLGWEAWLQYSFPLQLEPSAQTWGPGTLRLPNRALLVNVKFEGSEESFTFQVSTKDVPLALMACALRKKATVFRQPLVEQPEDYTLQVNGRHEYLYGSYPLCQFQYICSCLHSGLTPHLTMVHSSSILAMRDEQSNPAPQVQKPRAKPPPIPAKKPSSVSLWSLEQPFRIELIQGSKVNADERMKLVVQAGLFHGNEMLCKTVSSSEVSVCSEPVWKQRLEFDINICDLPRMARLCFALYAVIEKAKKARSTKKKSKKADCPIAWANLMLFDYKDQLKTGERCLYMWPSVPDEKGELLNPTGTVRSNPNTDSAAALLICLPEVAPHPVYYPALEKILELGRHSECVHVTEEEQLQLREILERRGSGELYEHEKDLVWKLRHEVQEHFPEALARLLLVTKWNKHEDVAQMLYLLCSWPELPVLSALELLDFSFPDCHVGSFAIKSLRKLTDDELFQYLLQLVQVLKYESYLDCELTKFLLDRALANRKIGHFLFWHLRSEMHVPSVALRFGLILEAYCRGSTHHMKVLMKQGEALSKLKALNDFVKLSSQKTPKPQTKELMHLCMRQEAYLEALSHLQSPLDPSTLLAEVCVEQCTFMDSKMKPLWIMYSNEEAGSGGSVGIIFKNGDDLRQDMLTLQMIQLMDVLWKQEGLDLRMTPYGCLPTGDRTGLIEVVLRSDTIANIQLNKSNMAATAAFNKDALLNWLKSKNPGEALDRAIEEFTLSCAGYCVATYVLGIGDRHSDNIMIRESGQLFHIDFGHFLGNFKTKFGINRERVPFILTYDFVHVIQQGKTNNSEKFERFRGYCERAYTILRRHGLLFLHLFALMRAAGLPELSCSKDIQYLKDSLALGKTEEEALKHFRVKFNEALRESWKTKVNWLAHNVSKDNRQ
Protocol: as §1, with “PI3Kδ” for “PI3Kα”, “(200×)” for “(200′).”, “2.5×PI3Kδ” for “2.5×PI3Kα”, “minutes. Finally,” for “minutes.Finally,”, “IC50” for “IC5”

[3] = target: Son of sevenless homolog 1/GTPase KRas [G12C] (Homo sapiens, UniProt P01116, G12C); assay: HTRF KRASG12C/SOS1 Binding Assay
Protocol: The HTRF KRASG12C/SOS1 Binding Assay was used to measure the interaction between KRASG12C and SOS1 proteins, and evaluate the enzymatic activity of compounds against KRASG12C. The utilized proteins and assay reagents were obtained from the KRASG12C-SOS1 binding assay kits (Cisbio). Initially, a 2 mM stock solution of the test compound (dissolved in DMSO) was serially diluted in five-fold concentrations using DMSO to obtain eight working solutions 1 (200×). Subsequently, each of the eight working solutions 1 was further diluted in a 20-fold gradient by adding 5 μL into 95 μL of Diluent buffer, mixed completely with vortex mixer, resulting in eight working solutions 2 (10×). In a 384-well white flat-bottom plate, 4 μL of Tag2-KRASG12C solution, 2 μL of working solution 2 (10×) and 4 μL of Tag1-SOS1 solution were sequentially added to each well and mixed, followed by a 15-minute incubation at room temperature (RT). Subsequently, 5 μL of Anti-tag 1-Tb3+ stock solution and 5 μL of Anti-tag2-XL665 were added to each well, mixed, and incubated at 4° C. for 3 hours. […] The inhibition rate was calculated using the following formula:%Inhibitionrate= [(Rationegative-Ratiocompound)/(Rationegative-RatioBlank)]×100Data were analyzed using GraphPad Prism with log (inhibitor) vs. response-Variable Slope (four parameters) fitting calculations for IC50 values.

Chain of Phosphatidylinositol 4,5-bisphosphate 3-kinase catalytic subunit alpha isoform (P42336 whole entry, canonical isoform): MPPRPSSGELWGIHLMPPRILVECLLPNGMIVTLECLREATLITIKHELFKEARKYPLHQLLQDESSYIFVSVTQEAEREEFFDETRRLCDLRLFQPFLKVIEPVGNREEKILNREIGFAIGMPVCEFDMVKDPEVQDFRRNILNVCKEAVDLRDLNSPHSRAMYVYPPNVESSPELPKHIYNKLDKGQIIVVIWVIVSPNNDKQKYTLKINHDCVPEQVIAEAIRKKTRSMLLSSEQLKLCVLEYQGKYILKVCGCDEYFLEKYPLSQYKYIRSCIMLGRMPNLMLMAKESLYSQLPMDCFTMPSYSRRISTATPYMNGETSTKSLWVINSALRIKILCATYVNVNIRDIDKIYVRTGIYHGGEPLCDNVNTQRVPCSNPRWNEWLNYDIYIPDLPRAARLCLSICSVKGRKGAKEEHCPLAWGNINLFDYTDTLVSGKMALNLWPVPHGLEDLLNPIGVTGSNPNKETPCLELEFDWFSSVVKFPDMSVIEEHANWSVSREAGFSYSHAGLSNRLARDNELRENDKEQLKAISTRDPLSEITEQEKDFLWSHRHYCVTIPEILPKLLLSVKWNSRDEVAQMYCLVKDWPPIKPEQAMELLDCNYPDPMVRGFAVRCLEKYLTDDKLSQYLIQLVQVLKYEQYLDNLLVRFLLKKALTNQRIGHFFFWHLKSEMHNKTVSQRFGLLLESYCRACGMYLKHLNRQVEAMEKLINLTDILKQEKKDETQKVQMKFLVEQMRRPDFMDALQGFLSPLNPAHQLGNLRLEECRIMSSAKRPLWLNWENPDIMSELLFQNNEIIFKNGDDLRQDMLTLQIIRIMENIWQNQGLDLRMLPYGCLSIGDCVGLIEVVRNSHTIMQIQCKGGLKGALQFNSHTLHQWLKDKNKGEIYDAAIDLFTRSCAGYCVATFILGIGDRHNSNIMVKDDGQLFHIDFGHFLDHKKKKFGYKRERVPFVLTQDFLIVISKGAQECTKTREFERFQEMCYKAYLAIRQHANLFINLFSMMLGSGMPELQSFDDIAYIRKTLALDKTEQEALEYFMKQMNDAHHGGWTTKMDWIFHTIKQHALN
Chain of Son of sevenless homolog 1/GTPase KRas [G12C] (P01116 whole entry G12C): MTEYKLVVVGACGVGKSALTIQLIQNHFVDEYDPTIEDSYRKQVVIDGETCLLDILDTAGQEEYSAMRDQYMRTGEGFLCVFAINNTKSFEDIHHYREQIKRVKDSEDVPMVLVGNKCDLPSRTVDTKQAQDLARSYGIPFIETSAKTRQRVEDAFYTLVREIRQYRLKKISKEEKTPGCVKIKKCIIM
Chain of Son of sevenless homolog 1/GTPase KRas [G12C] (Q07889 whole entry, further chain): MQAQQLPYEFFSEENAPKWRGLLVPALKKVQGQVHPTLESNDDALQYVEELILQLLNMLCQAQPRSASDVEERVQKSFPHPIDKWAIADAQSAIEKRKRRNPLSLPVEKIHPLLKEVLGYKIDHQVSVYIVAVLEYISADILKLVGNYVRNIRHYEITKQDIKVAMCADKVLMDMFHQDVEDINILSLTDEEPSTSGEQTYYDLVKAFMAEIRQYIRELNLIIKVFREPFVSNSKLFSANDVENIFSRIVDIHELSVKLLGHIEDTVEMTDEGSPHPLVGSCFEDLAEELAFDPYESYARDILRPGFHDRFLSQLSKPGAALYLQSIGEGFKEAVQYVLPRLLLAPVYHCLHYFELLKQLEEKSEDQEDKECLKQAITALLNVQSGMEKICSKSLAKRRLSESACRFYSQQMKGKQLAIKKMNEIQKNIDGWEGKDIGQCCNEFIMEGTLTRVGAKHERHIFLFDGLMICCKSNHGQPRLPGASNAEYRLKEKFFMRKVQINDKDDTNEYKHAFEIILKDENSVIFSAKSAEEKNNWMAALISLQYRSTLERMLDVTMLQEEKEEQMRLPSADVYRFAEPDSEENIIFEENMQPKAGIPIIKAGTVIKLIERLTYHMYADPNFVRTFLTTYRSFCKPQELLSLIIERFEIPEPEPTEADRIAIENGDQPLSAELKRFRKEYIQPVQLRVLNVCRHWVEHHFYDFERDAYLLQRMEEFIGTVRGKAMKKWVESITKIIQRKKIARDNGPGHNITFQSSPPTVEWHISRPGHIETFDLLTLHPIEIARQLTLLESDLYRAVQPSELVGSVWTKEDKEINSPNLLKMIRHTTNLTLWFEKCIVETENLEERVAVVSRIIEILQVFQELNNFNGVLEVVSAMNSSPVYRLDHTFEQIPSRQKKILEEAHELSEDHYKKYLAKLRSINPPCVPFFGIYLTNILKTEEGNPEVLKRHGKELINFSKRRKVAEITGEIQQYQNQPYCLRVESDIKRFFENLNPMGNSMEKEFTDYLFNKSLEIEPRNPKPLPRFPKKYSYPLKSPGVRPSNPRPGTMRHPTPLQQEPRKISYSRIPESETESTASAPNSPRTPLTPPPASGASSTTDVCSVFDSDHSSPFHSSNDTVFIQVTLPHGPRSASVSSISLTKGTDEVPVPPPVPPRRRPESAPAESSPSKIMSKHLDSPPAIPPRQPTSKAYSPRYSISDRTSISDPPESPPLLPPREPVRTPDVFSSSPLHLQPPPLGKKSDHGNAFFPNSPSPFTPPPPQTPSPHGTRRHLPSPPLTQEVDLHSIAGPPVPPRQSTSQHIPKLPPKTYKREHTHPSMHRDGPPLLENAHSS

Compound	IC50 [1] [nM]	IC50 [2] [nM]	IC50 [3] [nM]
COc1ncc(-c2ccc3ncnc(N4CCC5(CN(C(=O)/C=C/C(C)=O)C5)C4)c3c2)cc1NS(=O)(=O)c1ccc(F)cc1F [US20250145589, Example 13]	11.3	85.3	96.7
C=C(F)C(=O)N1CCN(c2ncnc3ccc(-c4cnc(OC)c(N(C)S(=O)(=O)c5ccc(F)cc5F)c4)cc23)CC1 [US20250145589, Example 79]		903	
C=CS(=O)(=O)N1CCN(c2ncnc3ccc(-c4cnc(OC)c(NS(=O)(=O)c5ccc(F)cc5F)c4)cc23)CC1 [US20250145589, Example 207]	3.2		

More lines, now with the values ahead:

IC50 [1] [nM]	IC50 [2] [nM]	IC50 [3] [nM]	Compound
0.34	17.9	222	COc1ncc(-c2ccc3ncnc(N4CCN(C(=O)/C=C/C(C)=O)C[C@@H]4C)c3c2)cc1NS(=O)(=O)c1ccc(F)cc1F [US20250145589, Example 8]
1.4		210	COc1ncc(-c2ccc3ncnc(N4CCN(C(=O)/C=C/C(C)=O)CC4)c3n2)cc1NS(=O)(=O)c1cnccc1C [US20250145589, Example 223]
2.24	13.8	159	COc1ncc(-c2ccc3ncnc(N4CCN(C(=O)/C=C/C(C)=O)CC4)c3c2)cc1SS(=O)(=O)c1ccc(F)cc1F [US20250145589, Example 246]
